Assay results: patent US5807570A, “Transdermal administration of ropinirole and analogs thereof” (priority 1996, dated 1998)
Where a name gives a salt, the structure may show the parent alone.

What was measured:
Parkinson's disease [1] = details: statement in words; cited from earlier work
rabbits = assay: Skin irritation study in rabbits, modified Draize irritation protocol; assay type: in vivo, rabbit; details: conclusion in words from Table 4
Description: The skin irritation study in rabbits using a modified Draize irritation protocol. The treatments included:
1) different activities of ropinirole in the selected vehicle that gave the highest flux of ropinirole slat; and
2) ropinirole in two selected vehicles. A proprietary vehicle that has been used in skin flux studies were tested as a control.
Mineral oil was used as the negative control in the study. The mean primary irritation score for each treatment was calculated.
3) ropinirole and base in three prototype systems (36048C, 36047G and 36040F; see Table 4 in Example 3, below).
Various ropinirole formulations were prepared and irritation studies conducted as described above.

dopamine D2 = details: versus bromocriptine and pergolide; cited from earlier work
[2] = in water at 20° C.; cited from earlier work
Parkinson's disease [3] = details: patients undergoing treatment with L-Dopa; cited from earlier work

## CCCN(CCC)CCc1cccc2c1CC(=O)N2 [ropinirole, 4-[2-(dipropylamino)ethyl]-1,3-dihydro-2H-indol-2-one]
Parkinson's disease [1]
  effectiveness in the treatment of Parkinson's disease: effective in the treatment of Parkinson's disease
rabbits
  irritation encountered upon transdermal administration: minimal
Dopamine D2
  specificity as dopamine D2 agonist: more specific dopamine D2 agonist than other dopamine agonists such as bromocriptine and pergolide

## CCCN(CCC)CCc1cccc2c1CC(=O)N2 [Ropinirole hydrochloride]
[2]
  solubility: 133 mg/mL

## N[C@@H](Cc1ccc(O)c(O)c1)C(=O)O [L-Dopa]
Parkinson's disease [3]
  therapeutic response fluctuations: severe therapeutic response fluctuations
